Data set [1] is described as follows: Dissolution of tertiary amine in water without inorganic salts, with or without HCl. The class given is physicochemical. The source says:
Similar compositions were created as those listed in Table 1A, but instead of amine fluoride, a tertiary amine was used.

The nature of data set [2]: Dissolution of tertiary amine with HCl and sodium fluoride, without and with sodium chloride. The format is physicochemical. Particulars: hydrochloric acid, sodium fluoride and alkali salt added; compared to absence of additional inorganic salts. The source says:
A new batch of solutions was created similar to those shown in Table 2B, but with the addition of sodium fluoride.

A short description of data set [3]: Dissolution of tertiary amine with HCl and addition of alkali salts. The format is physicochemical. As for the experimental part: Further compositions containing the tertiary amine and hydrochloric acid were created. To these solutions, various quantities of alkali salts were added to evaluate the effect on solubility of the tertiary amine.
The nature of data set [4]: Dissolution of amine fluoride in water with addition of alkali salts. An excerpt:
Similar formulations are created also containing one or more alkali salts, selected from sodium chloride, potassium chloride and trisodium citrate dihydrate to investigate the effect of the salts' presence on solubility of the amine fluoride.

Data set [5] can be described thus: Dissolution of amine fluoride in water without additional salts (saturation concentration). Particulars: no salts.
Procedure: Amine fluoride is added in increasingly greater amounts to determine its saturation concentration, shown below in Table 1A.
The conditions of data set [6]: background statement; cited from earlier work.
Setting [7] is: with hydrochloric acid and about 5% alkali salt (composition 34).
Setting [8] is: when adding sodium chloride (composition 10).

As for `CCCCCCCCCCCCCCCCCCN(CCO)CCCN(CCO)CCO` [tertiary amine, N′-octadecyltrimethylendiamine-N,N,N′-tris(2-ethanol)], the “solubility of tertiary amine as concentration” value in data set [1] (with hydrochloric acid corresponding to hydronium level of equivalent amine fluoride) is “about 530 mM”. The “solubility of tertiary amine” value in data set [1] (with hydrochloric acid corresponding to hydronium level of equivalent amine fluoride (compositions 21-23)) is given as “above 24%”. Moreover, in data set [1] (without adjustment of pH), the “solubility of the tertiary amine in water” value is “about 70 % by weight” and the “solubility of the tertiary amine in water as concentration” value is listed as “about 1520 mM”. Further, the “change of solubility of the tertiary amine” value in data set [2] is reported as “not increased any further”. In addition, the “minimum addition of Sodium Chloride to fully dissolve 34% of tertiary amine” value in data set [3] (with hydrochloric acid) is on record as “about 1%”. In addition, in data set [3] (setting [7]), the “solubility of tertiary amine in water” value is reported as “about 40 % by weight” and the “solubility of tertiary amine in water as concentration” value is reported as “about 870 mM”.
Regarding `CCCCCCCCCCCCCCCCCCN(CCO)CCCN(CCO)CCO.F.F` [amine fluoride, N′-octadecyltrimethylendiamine-N,N,N′-tris(2-ethanol)-dihydrofluoride], in data set [4] (sodium chloride), the “lowest concentration of sodium chloride shown to increase solubility of amine fluoride in water” value is listed as “about 0.7%”. In data set [4] (setting [8]), the “solubility of amine fluoride in water” value is “above 35 % by weight” and the “solubility of amine fluoride in water as concentration of tertiary amine” value is listed as “about 640 mM”. For the same compound, the “maximum solubility of amine fluoride in water” value in data set [5] is recorded as “approximately 24 % by weight”. Further, the “maximum solubility of amine fluoride in water as concentration of tertiary amine” value in data set [5] (amine fluoride fully dissociated from hydrofluoride) is “about 440 mM”. Besides, in data set [6], the aqueous solubility entry is recorded as “very low aqueous solubility”.

Source of the values: patent publication US12544325B2, “Compositions and related methods” (Colgate-Palmolive Company, priority 2020, dated 2026).
